Reference: patent publication US11491157B2, “Cycloalkyl substituted pyrazolopyrimidines having activity against RSV” (priority 2018, dated 2022)
Counter-ions that a name gives are not always drawn.

Tests used:
[1] = in vitro; conditions: human
Procedure: (§1) Black 384-well clear-bottom microtiter plates (Corning, Amsterdam, The Netherlands) were filled via acoustic drop ejection using the echo liquid handler (Labcyte, Sunnyvale, Calif.). 200 nL of compound stock solutions (100% DMSO) were transferred to the assay plates. 9 serial 4-fold dilutions of compound were made, creating per quadrant the same compound concentration. The assay was initiated by adding 10 μL of culture medium to each well (RPMI medium without phenol red, 10% FBS-heat inactivated, 0.04% gentamycin (50 mg/mL). All addition steps are done by using a multidrop dispenser (Thermo Scientific, Erembodegem, Belgium). Next, rgRSV224 virus (MOI=1) diluted in culture medium was added to the plates. rgRSV224 virus is an engineered virus that includes an additional GFP gene (Hallak L K, Spillmann D, Collins P L, Peeples M E. Glycosaminoglycan sulfation requirements for respiratory syncytial virus infection; Journal of virology (2000), 74(22), 10508-13) and was in-licensed from the NIH (Bethesda, Md., USA). Finally, 20 μL of a HeLa cell suspension (3,000 cells/well) were plated. Medium, virus- and mock-infected controls were included in each test. The wells contain 0.05% DMSO per volume. Cells were incubated at 37° C. in a 5% CO2 atmosphere. Three days post-virus exposure, viral replication was quantified by measuring GFP expression in the cells by an in house developed MSM laser microscope (Tibotec, Beerse, Belgium). The EC50 was defined as the 50% inhibitory concentration for GFP expression. In parallel, compounds were incubated for three days in a set of white 384-well microtiter plates (Corning) and the cytotoxicity of compounds in HeLa cells was determined by measuring the ATP content of the cells using the ATPlite kit (Perkin Elmer, Zaventem, Belgium) according to the manufacturer's instructions. The CC50 was defined as the 50% concentration for cytotoxicity.

[2] = test system: rgRSV224 virus; experiment: Antiviral activity: rgRSV224 (GFP) replication in HeLa cells; conditions: human respiratory syncytial virus, 72 h, read-out: RSV HELA EC50
Procedure: as §1

SMILES	CC50 at 3 days [1]	EC50 [2]
C[C@@H]1c2ccccc2CCN1C(=O)c1cc(C2CC2)n2nc(-c3cnc(C4C[C@H]4C(N)=O)cc3F)cc2n1 (relative stereo) [Compound 49, Trans-2-(5-{7-Cyclopropyl-5-[(1R)-1-methyl-1,2,3,4-tetrahydroisoquinoline-2-carbonyl]pyrazolo[1,5-a]pyrimidin-2-yl}-4-fluoropyridin-2-yl)cyclopropane-1-carboxamide]	10800 nM	150 nM
C[C@@H]1c2ccccc2CCN1C(=O)c1cc(C2CC2)n2nc(-c3cnc(C4C[C@H]4C(=O)NS(C)(=O)=O)cc3F)cc2n1 (relative stereo) [Compound 50, Trans-2-(5-{7-Cyclopropyl-5-[(1R)-1-methyl-1,2,3,4-tetrahydroisoquinoline-2-carbonyl]pyrazolo[1,5-a]pyrimidin-2-yl}-4-fluoropyridin-2-yl)-N-methanesulfonylcyclopropane-1-carboxamide]	53300 nM	389 nM
C[C@@H]1c2ccccc2CCN1C(=O)c1cc(C2CC2)n2nc(-c3ccc(C4C[C@H]4C(N)=O)nc3F)cc2n1 (relative stereo) [Compound 51, Trans-2-(5-{7-Cyclopropyl-5-[(1R)-1-methyl-1,2,3,4-tetrahydroisoquinoline-2-carbonyl]pyrazolo[1,5-a]pyrimidin-2-yl}-6-fluoropyridin-2-yl)cyclopropane-1-carboxamide]	25900 nM	47 nM
C[C@@H]1c2ccccc2CCN1C(=O)c1cc(C2CC2)n2nc(-c3ccc(C4C[C@H]4C(=O)NS(C)(=O)=O)nc3F)cc2n1 (relative stereo) [Compound 52, Trans-2-(5-{7-Cyclopropyl-5-[(1R)-1-methyl-1,2,3,4-tetrahydroisoquinoline-2-carbonyl]pyrazolo[1,5-a]pyrimidin-2-yl}-6-fluoropyridin-2-yl)-N-methanesulfonylcyclopropane-1-carboxamide]	65300 nM	117 nM
C[C@@H]1c2ccccc2CCN1C(=O)c1cc(-c2ccccc2)n2nc(-c3ccc([C@H]4C[C@@H]4C(=O)NS(C)(=O)=O)cc3F)cc2n1 (single isomer, unassigned) [Compound 31, (1*S,2*S)-2-(3-Fluoro-4-{5-[(1R)-1-methyl-1,2,3,4-tetrahydroisoquinoline-2-carbonyl]-7-phenylpyrazolo[1,5-a]pyrimidin-2-yl}phenyl)-N-methanesulfonyl-cyclopropane-1-carboxamide; propan-2-amine salt]	35200 nM	40 nM
C[C@@H]1c2ccccc2CCN1C(=O)c1cc(-c2ccccc2)n2nc(-c3ccc([C@@H]4C[C@H]4C(=O)NS(C)(=O)=O)cc3F)cc2n1 (single isomer, unassigned) [Compound 32, (1*R,2*R)-2-(3-Fluoro-4-{5-[(1R)-1-methyl-1,2,3,4-tetrahydroisoquinoline-2-carbonyl]-7-phenylpyrazolo[1,5-a]pyrimidin-2-yl}phenyl)-N-methanesulfonyl-cyclopropane-1-carboxamide; propan-2-amine salt]	37300 nM	61 nM
C[C@@H]1c2ccccc2CCN1C(=O)c1cc(C2CC2)n2nc(-c3ccc([C@H]4C[C@@H]4CO)cc3F)cc2n1 [Compound 1, [(1S,2S)-2-(4-{7-Cyclopropyl-5-[(1R)-1-methyl-1,2,3,4-tetrahydroisoquinoline-2-carbonyl]pyrazolo[1,5-a]pyrimidin-2-yl}-3-fluorophenyl)cyclopropyl]methanol]	41800 nM	62 nM
C[C@@H]1c2ccccc2CCN1C(=O)c1cc(C2CC2)n2nc(-c3ccc([C@@H]4C[C@H]4c4cc(=O)[nH]o4)cc3F)cc2n1 [Compound 2, 5-[(1R,2R)-2-(4-{7-Cyclopropyl-5-[(1R)-1-methyl-1,2,3,4-tetrahydroisoquinoline-2-carbonyl]pyrazolo[1,5-a]pyrimidin-2-yl}-3-fluorophenyl)cyclopropyl]-2,3-dihydro-1,2-oxazol-3-one]	42500 nM	84 nM
C[C@@H]1c2ccccc2CCN1C(=O)c1cc(C2CC2)n2nc(-c3ccc([C@H]4C[C@@H]4C#N)cc3F)cc2n1 [Compound 3, (1S,2S)-2-(4-{7-Cyclopropyl-5-[(1R)-1-methyl-1,2,3,4-tetrahydroisoquinoline-2-carbonyl]pyrazolo[1,5-a]pyrimidin-2-yl}-3-fluorophenyl)cyclopropane-1-carbonitrile]	> 100000 nM	319 nM
C[C@@H]1c2ccccc2CCN1C(=O)c1cc(C2CC2)n2nc(-c3ccc([C@H]4C[C@@H]4c4noc(=O)[nH]4)cc3F)cc2n1 [Compound 5, 3-[(1S,2S)-2-(4-{7-Cyclopropyl-5-[(1R)-1-methyl-1,2,3,4-tetrahydroisoquinoline-2-carbonyl]pyrazolo[1,5-a]pyrimidin-2-yl}-3-fluorophenyl)cyclopropyl]-4,5-dihydro-1,2,4-oxadiazol-5-one]	41800 nM	98 nM
C[C@@H]1c2ccccc2CCN1C(=O)c1cc(C2CC2)n2nc(-c3ccc([C@H]4C[C@@H]4C(=O)NC#N)cc3F)cc2n1 [Compound 13, (1S,2S)—N-Cyano-2-(4-{7-cyclopropyl-5-[(1R)-1-methyl-1,2,3,4-tetrahydroisoquinoline-2-carbonyl]pyrazolo[1,5-a]pyrimidin-2-yl}-3-fluorophenyl)cyclopropane-1-carboxamide]	49800 nM	731 nM
CCNC(=O)[C@H]1C[C@@H]1c1ccc(-c2cc3nc(C(=O)N4CCc5ccccc5[C@H]4C)cc(C4CC4)n3n2)c(F)c1 [Compound 14, (1S,2S)-2-(4-{7-Cyclopropyl-5-[(1R)-1-methyl-1,2,3,4-tetrahydroisoquinoline-2-carbonyl]pyrazolo[1,5-a]pyrimidin-2-yl}-3-fluorophenyl)-N-ethylcyclopropane-1-carboxamide]	> 50000 nM	170 nM
C#CCNC(=O)[C@H]1C[C@@H]1c1ccc(-c2cc3nc(C(=O)N4CCc5ccccc5[C@H]4C)cc(C4CC4)n3n2)c(F)c1 [Compound 17, (1S,2S)-2-(4-{7-Cyclopropyl-5-[(1R)-1-methyl-1,2,3,4-tetrahydroisoquinoline-2-carbonyl]-pyrazolo[1,5-a]pyrimidin-2-yl}-3-fluorophenyl)-N-(prop-2-yn-1-yl)cyclopropane-1-carboxamide]	> 100000 nM	182 nM
C[C@@H]1c2ccccc2CCN1C(=O)c1cc(C2CC2)n2nc(-c3ccc([C@H]4C[C@@H]4C(=O)NC4(C)CC4)cc3F)cc2n1 [Compound 20, (1S,2S)-2-(4-{7-Cyclopropyl-5-[(1R)-1-methyl-1,2,3,4-tetrahydroisoquinoline-2-carbonyl]-pyrazolo[1,5-a]pyrimidin-2-yl}-3-fluorophenyl)-N-(1-methylcyclopropyl)cyclopropane-1-carboxamide]	> 10000 nM	287 nM
C[C@@H]1c2ccccc2CCN1C(=O)c1cc(C2CC2)n2nc(-c3ccc([C@H]4C[C@@H]4C(=O)NCCO)cc3F)cc2n1 [Compound 21, (1S,2S)-2-(4-{7-Cyclopropyl-5-[(1R)-1-methyl-1,2,3,4-tetrahydroisoquinoline-2-carbonyl]-pyrazolo[1,5-a]pyrimidin-2-yl}-3-fluorophenyl)-N-(2-hydroxyethyl)-cyclopropane-1-carboxamide]	> 100000 nM	62 nM
C[C@@H]1c2ccccc2CCN1C(=O)c1cc(C2CC2)n2nc(-c3ccc([C@H]4C[C@@H]4C(=O)N(C)C)cc3F)cc2n1 [Compound 22, (1S,2S)-2-(4-{7-Cyclopropyl-5-[(1R)-1-methyl-1,2,3,4-tetrahydroisoquinoline-2-carbonyl]-pyrazolo[1,5-a]pyrimidin-2-yl}-3-fluorophenyl)-N,N-dimethylcyclopropane-1-carboxamide]	51800 nM	427 nM
C[C@@H]1c2ccccc2CCN1C(=O)c1cc(C2CC2)n2nc(-c3ccc([C@H]4C[C@@H]4C(=O)N4CCCC4)cc3F)cc2n1 [Compound 23, (1R)-2-(7-Cyclopropyl-2-{2-fluoro-4-[(1S,2S)-2-(pyrrolidine-1-carbonyl)cyclopropyl]-phenyl}pyrazolo[1,5-a]pyrimidine-5-carbonyl)-1-methyl-1,2,3,4-tetrahydroisoquinoline]	16900 nM	427 nM
C[C@@H]1c2ccccc2CCN1C(=O)c1cc(C2CC2)n2nc(-c3ccc([C@H]4C[C@@H]4C(=O)NS(=O)(=O)C(F)(F)F)cc3F)cc2n1 [Compound 29, (1S,2S)-2-(4-{7-Cyclopropyl-5-[(1R)-1-methyl-1,2,3,4-tetrahydroisoquinoline-2-carbonyl]pyrazolo[1,5-a]pyrimidin-2-yl}-3-fluorophenyl)-N-trifluoromethane-sulfonylcyclopropane-1-carboxamide amine salt]	> 100000 nM	2360 nM
COC(=O)N[C@H]1C[C@@H]1c1ccc(-c2cc3nc(C(=O)N4CCc5ccccc5[C@H]4C)cc(C4CC4)n3n2)c(F)c1 [Compound 33, Methyl N-[(1S,2R)-2-(4-{7-cyclopropyl-5-[(1R)-1-methyl-1,2,3,4-tetrahydroisoquinoline-2-carbonyl]pyrazolo[1,5-a]pyrimidin-2-yl}-3-fluorophenyl)cyclopropyl]carbamate]	> 100000 nM	155 nM
C[C@@H]1c2ccccc2CCN1C(=O)c1cc(C2CC2)n2nc(-c3ccc([C@H]4C[C@@H]4NC(=O)C4CC4)cc3F)cc2n1 [Compound 35, N-[(1S,2R)-2-(4-{7-Cyclopropyl-5-[(1R)-1-methyl-1,2,3,4-tetrahydroisoquinoline-2-carbonyl]pyrazolo[1,5-a]pyrimidin-2-yl}-3-fluorophenyl)cyclopropyl]cyclopropane-carboxamide]	> 100000 nM	57 nM
C[C@@H]1c2ccccc2CCN1C(=O)c1cc(C2CC2)n2nc(-c3ccc([C@H]4C[C@@H]4NS(C)(=O)=O)cc3F)cc2n1 [Compound 36, N-[(1S,2R)-2-(4-{7-Cyclopropyl-5-[(1R)-1-methyl-1,2,3,4-tetrahydroisoquinoline-2-carbonyl]pyrazolo[1,5-a]pyrimidin-2-yl}-3-fluorophenyl)cyclopropyl]methanesulfonamide]	> 100000 nM	110 nM
